Source: PMC12138161, “Structure–activity analysis of imino‐pyrimidinone‐fused pyrrolidines aids the development of dual plasmepsin V and plasmepsin X inhibitors” (The Febs Journal, 2025)
“And” between values parts separate entries of the source, which are not always exact repeats. Identical values can stand only once.

How the values were obtained:
[1] = biological target: T1, recombinant Plasmodium vivax PMV (Plasmodium vivax, UniProt A5K302); assay: Plasmepsin V fluorogenic substrate cleavage assay; format: biochemical; conditions: for IC50: recombinant P. vivax PMV, average of three independent experiments, read-out: PMV IC50 (SD)
T1 construct: PvPMV (residues R35–R476) was prepared similarly; gp67 signal peptide (N); TEV protease cleavage site + FLAG tag (C); made in house; host or cells: Sf21 insect cells
T1 sequence (A5K302 35-476): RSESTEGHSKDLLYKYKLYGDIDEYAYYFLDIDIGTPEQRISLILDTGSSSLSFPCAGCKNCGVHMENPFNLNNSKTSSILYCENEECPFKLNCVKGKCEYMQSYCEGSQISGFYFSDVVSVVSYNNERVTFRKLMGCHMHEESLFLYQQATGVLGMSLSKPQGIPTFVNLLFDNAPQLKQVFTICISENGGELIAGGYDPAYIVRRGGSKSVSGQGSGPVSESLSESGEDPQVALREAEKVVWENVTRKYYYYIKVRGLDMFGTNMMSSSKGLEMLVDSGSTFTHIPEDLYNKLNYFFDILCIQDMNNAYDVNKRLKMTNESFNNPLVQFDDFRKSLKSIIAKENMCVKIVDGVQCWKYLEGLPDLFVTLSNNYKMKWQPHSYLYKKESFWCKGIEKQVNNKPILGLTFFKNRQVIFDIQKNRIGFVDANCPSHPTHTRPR
Source text: To uncover nonpeptidomimetic drug‐like inhibitors of the aspartic protease PvPMV, we screened a library of 1298 compounds that were known to inhibit human aspartyl proteases. These compounds were selected by chemoinformatic structural diversity from a larger library of compounds that targeted human aspartyl proteases and has been used previously to identify hit compounds that inhibited P. falciparum growth. These hit compounds belonged to a single chemical class and were used to develop a lead compound WM382 that is a dual selective inhibitor of PMIX and PMX from P. falciparum and P. vivax. The screen utilized a FRET‐based assay with PvPMV and a fluorogenic EDANS‐DACBYL labeled peptide with the P. falciparum knob‐associated histidine‐rich protein (KAHRP) PEXEL motif amino acid sequence.
(§1) These fluorogenic assays follow protocols previously described. Compound potency was assessed with 10 point, threefold dilution series starting at 100 μM in duplicate per experiment and repeated in three independent experiments. Data were normalized to percent inhibition relative to 1% DMSO (high control) and either 1 μM WEHI‐600 for PMV and 1 μM WM382 for PMIX/PMX (low controls). IC50 values (relative inflection of dose–response curve) were calculated using a nonlinear regression four‐parameter fit analysis in DOTMATICS 5.3 (Dotmatics, Boston, MA, USA) and SPOTFIRE 7.11.1 (Goteborg, Sweden) software. The equation used was sigmoidal dose–response (variable slope), Y = bottom + (top − bottom)/(1 + 10 ((logIC50 − X) × Hill Slope)). Reported IC50 values were calculated based on the averages of three independent dataset. Assay robustness and data quality was assessed by Z′ > 0.5 (Z′ = 1 − (3 × (SD high + SD low)/(mean high − mean low))) and activity reproducibility of reference compound. WEHI‐600 (PMV) or WM382 (PMIX/PMX) were included as reference compounds in every experiment to monitor the assay performance. Any drift in activity greater than threefold from the average acceptable range and the experiment was rejected and repeated.

[2] = biological target: T2, Plasmodium falciparum PMIX (Plasmodium falciparum, UniProt Q8ILG2); assay: Plasmepsin IX fluorogenic substrate cleavage assay; format: biochemical; conditions: P. falciparum PMIX; average of three independent experiments; read-out: PMIX IC50 (SD)
T2 sequence (Q8ILG2 1-627): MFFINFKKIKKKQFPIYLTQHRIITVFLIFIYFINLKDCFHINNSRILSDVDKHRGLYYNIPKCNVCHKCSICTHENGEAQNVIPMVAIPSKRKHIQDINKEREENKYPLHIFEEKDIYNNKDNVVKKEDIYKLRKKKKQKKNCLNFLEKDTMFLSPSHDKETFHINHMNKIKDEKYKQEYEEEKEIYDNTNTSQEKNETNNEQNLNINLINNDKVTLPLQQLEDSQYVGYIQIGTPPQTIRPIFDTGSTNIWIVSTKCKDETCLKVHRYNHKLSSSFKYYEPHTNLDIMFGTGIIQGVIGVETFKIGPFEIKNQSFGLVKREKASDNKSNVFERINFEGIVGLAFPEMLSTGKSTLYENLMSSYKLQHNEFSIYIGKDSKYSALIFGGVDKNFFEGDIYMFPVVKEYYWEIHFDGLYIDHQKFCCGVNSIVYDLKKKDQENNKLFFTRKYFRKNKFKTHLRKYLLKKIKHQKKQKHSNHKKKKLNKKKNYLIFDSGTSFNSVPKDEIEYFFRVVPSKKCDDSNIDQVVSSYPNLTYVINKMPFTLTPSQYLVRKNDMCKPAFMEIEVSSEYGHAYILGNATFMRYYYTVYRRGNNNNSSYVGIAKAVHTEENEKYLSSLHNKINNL
Experimental: as §1

P. falciparum PMX = P. falciparum PMX (Plasmodium falciparum, UniProt Q8IAS0); assay: Plasmepsin X fluorogenic substrate cleavage assay; format: biochemical; conditions: for IC50: P. falciparum PMX, average of three independent experiments, read-out: PMX IC50 (SD)
P. falciparum PMX, sequence (Q8IAS0 222-573): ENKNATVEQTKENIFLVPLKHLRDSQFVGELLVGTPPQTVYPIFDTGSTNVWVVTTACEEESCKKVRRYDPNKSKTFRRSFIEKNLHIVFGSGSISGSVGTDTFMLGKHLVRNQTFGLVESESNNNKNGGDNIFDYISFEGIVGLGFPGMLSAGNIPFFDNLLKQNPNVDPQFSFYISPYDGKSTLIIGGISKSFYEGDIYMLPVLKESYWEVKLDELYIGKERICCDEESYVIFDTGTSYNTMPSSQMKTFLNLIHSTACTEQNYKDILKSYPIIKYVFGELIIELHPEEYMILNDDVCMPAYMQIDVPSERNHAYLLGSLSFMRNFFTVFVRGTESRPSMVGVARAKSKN
Experimental: as §1

[3] = system: P. falciparum 3D7 asexual parasites; assay: P. falciparum growth inhibition assay (LDH activity, 72 h); format: cell-based, Plasmodium falciparum; conditions: for EC50: Plasmodium falciparum, 3D7 asexual parasites, 72 h exposure, LDH activity, three independent experiments, read-out: Pf 3D7 EC50 (SD)
Experimental: The ability of compounds to block growth of blood stage P. falciparum parasites was determined using a growth inhibition assay (GIA) as described. Compound potency was assessed with 10 point, threefold dilution series starting at 10 μM in duplicate per experiment and repeated in three independent experiments. Data were normalized to percent viability relative to 0.1% DMSO (high growth control) and 2.5 μM chloroquine (low growth control). EC50 values (relative inflection of dose–response curve) were calculated using a nonlinear regression four‐parameter fit analysis in DOTMATICS 5.3 and SPOTFIRE 7.11.1 software. The equation used was sigmoidal dose–response (variable slope), Y = bottom + (top − bottom)/(1 + 10 ((logEC50 − X) × Hill Slope)). Reported EC50 values were calculated on the average of three independent dataset. Assay robustness and data quality was assessed by Z′ > 0.5 (Z′ = 1 − (3 × (SD high + SD low)/(mean high − mean low))) and activity reproducibility of reference compound WM382, which was included in every experiment. Any drift in WM382 activity greater than threefold from the average acceptable range and the experiment was rejected and repeated.

| SMILES | IC50 [1] | IC50 [2] | IC50 (P. falciparum PMX) | EC50 [3] | improvement of PMV inhibition ([1]; compared with WM36 (8)) | inhibition of P. falciparum asexual parasite replication / antimalarial activity (in words) ([3]; blood stage) | more potent against PMX (P. falciparum PMX; than the unsubstituted comparator analog 24) |
| --- | --- | --- | --- | --- | --- | --- | --- |
| CN1C(=N)NC2(c3cc(F)ccc3F)CN(c3ncccc3-c3ccccc3)CC2C1=O (stereo not shown) [Compound 6] | 440 nM | 3000 nM | 1070 nM | > 10000 nM | – | – | – |
| CN1C(=N)NC2(c3cc(F)ccc3F)CN(c3ncccc3-c3ccccc3F)CC2C1=O (stereo not shown) [Compound 7] | 1020 nM | 4530 nM | 1330 nM | > 10000 nM | – | – | – |
| Cc1ccccc1-c1cccnc1N1CC2C(=O)N(C)C(=N)NC2(c2cc(F)ccc2F)C1 (stereo not shown) [Compound 9] | 610 nM | 5500 nM | 2070 nM | > 10000 nM | – | – | – |
| CN1C(=N)NC2(c3cc(F)ccc3F)CN(c3ncccc3-c3ccccc3C(F)(F)F)CC2C1=O (stereo not shown) [Compound 10] | 3450 nM | 3970 nM | 1280 nM | > 10000 nM | – | – | – |
| COc1ccccc1-c1cccnc1N1CC2C(=O)N(C)C(=N)NC2(c2cc(F)ccc2F)C1 (stereo not shown) [Compound 11] | 303 nM | > 10000 nM | 7500 nM | > 10000 nM | 2.5 fold | – | – |
| CN1C(=N)NC2(c3cc(F)ccc3F)CN(c3ncccc3-c3cccc(Cl)c3)CC2C1=O (stereo not shown) [Compound 12] | > 3700 nM | 390 to 1170 nM and 560 nM | 390 to 1170 nM and 390 nM | > 10000 nM | – | – | – |
| COc1cccc(-c2cccnc2N2CC3C(=O)N(C)C(=N)NC3(c3cc(F)ccc3F)C2)c1 (stereo not shown) [Compound 13] | 1500 nM | 390 to 1170 nM and 1170 nM | 390 to 1170 nM and 473 nM | > 10000 nM | – | – | – |
| COc1ccc(-c2cccnc2N2CC3C(=O)N(C)C(=N)NC3(c3cc(F)ccc3F)C2)cc1 (stereo not shown) [Compound 15] | 3600 nM | 2000 nM | 473 nM | > 10000 nM | – | – | – |
| CN1C(=N)NC2(c3cc(F)ccc3F)CN(c3ncccc3-c3ccc(Cl)cc3F)CC2C1=O (stereo not shown) [Compound 16] | 780 nM | 417 nM | 1330 nM | > 10000 nM | – | – | – |
| CN1C(=N)NC2(c3cc(F)ccc3F)CN(c3ncccc3-c3ccc(Cl)cc3Cl)CC2C1=O (stereo not shown) [Compound 17] | 517 nM | 360 nM | 1070 nM | > 10000 nM | – | – | – |
| CN1C(=N)NC2(c3cc(F)ccc3F)CN(c3ncccc3-c3ccc(Cl)cc3C(F)(F)F)CC2C1=O (stereo not shown) [Compound 18] | > 3700 nM | 1080 nM | 483 nM | > 10000 nM | – | – | – |
| CN1C(=N)NC2(c3cc(F)ccc3F)CN(c3ncccc3-c3ccc(Cl)c(Cl)c3)CC2C1=O (stereo not shown) [Compound 19] | > 3700 nM | 434 nM | 187 nM | > 10000 nM | – | – | – |
| CN1C(=N)NC2(c3cc(F)ccc3F)CN(c3ncccc3-c3ccc(Cl)c(F)c3)CC2C1=O (stereo not shown) [Compound 20] | 1010 nM | 1150 nM | 440 nM | > 10000 nM | – | – | – |
| CN1C(=N)NC2(c3cc(F)ccc3F)CN(c3ncccc3-c3ccc(F)cc3Cl)CC2C1=O (stereo not shown) [Compound 21] | 967 nM | 3230 nM | 990 nM | > 10000 nM | – | – | – |
| Cc1ccc(-c2cccnc2N2CC3C(=O)N(C)C(=N)NC3(c3cc(F)ccc3F)C2)c(Cl)c1 (stereo not shown) [Compound 22] | 690 nM | 1630 nM | 420 nM | > 10000 nM | – | – | – |
| COc1ccc(-c2cccnc2N2CC3C(=O)N(C)C(=N)NC3(c3cc(F)ccc3F)C2)c(Cl)c1 (stereo not shown) [Compound 23] | 3170 nM | 1630 nM | 420 nM | > 10000 nM | – | – | – |
| CN1C(=N)NC2(c3cc(F)ccc3F)CN(c3ncccc3-c3cccs3)CC2C1=O (stereo not shown) [Compound 24] | 1230 nM | 1200 nM | 67 nM | 1770 nM | – | – | – |
| CN1C(=N)NC2(c3cc(F)ccc3F)CN(c3ncccc3-c3ccc(Cl)s3)CC2C1=O (stereo not shown) [Compound 26] | 610 nM | – | 70 nM | 2500 nM | – | – | – |
| CN1C(=N)NC2(c3cc(F)ccc3F)CN(c3ncsc3-c3ccccc3)CC2C1=O (stereo not shown) [Compound 27] | 440 nM | 990 nM | 473 nM | > 10000 nM | – | – | – |
| CN1C(=N)NC2(c3cc(F)ccc3F)CN(c3nn(C)cc3-c3ccccc3)CC2C1=O (stereo not shown) [Compound 29] | 1050 nM | 10400 nM | 3470 nM | > 10000 nM | – | – | – |
| CN1C(=N)NC2(c3cc(F)ccc3F)CN(c3ncccc3-c3ccccc3Cl)CC2C1=O (stereo not shown) [R/S‐WM36 (8)] | 807 nM | 4870 nM | 1100 nM | > 10000 nM | – | did not inhibit | – |
| CN1C(=N)NC2(c3cc(F)ccc3F)CN(c3ncccc3-c3ccc(Cl)cc3)CC2C1=O (stereo not shown) [R/S‐WM48 (14), 6‐(3‐(4‐chlorophenyl)pyridin‐2‐yl)‐7a‐(2,5‐difluorophenyl)‐2‐imino‐3‐methylhexahydro‐1H‐pyrrolo[3,4‐d]pyrimidin‐4(4aH)‐one] | 357 nM | 1080 nM | 343 nM | > 10000 nM | – | – | – |
| CN1C(=N)NC2(c3cc(F)ccc3F)CN(c3ncccc3-c3sccc3Cl)CC2C1=O (stereo not shown) [R/S‐WM396 (25)] | 1110 nM | 350 nM | 9 nM | 200 nM | – | – | 8 × |
